Measured values reported in ChEMBL document CHEMBL1146550, “Sesquiterpenoid derivatives from Gonospermum elegans and their cytotoxic activity for HL-60 human promyelocytic cells” (J Nat Prod, 2003).
Calls of active or inactive are those of the source. No cut-off for these calls is given here.

Experiments:
HL-60 [1] = assay: Induction of apoptosis in human HL60 cells assessed as peripheral nuclear chromatin condensation at 0.1 to 3 uM after 12 hrs by Hoechst staining-based fluorescence microscopy; format: functional, cell-based
HL-60 [2] = assay: Antiproliferative activity against human HL60 cells after 24 hrs by MTT assay; format: functional, cell-based; settings: for IC50: HL-60, 24 h
HL-60 [3] = assay: Induction of apoptosis in human HL60 cells assessed as […] DNA fragmentation at 1 uM after 12 hrs by agarose gel electrophoresis; format: functional, cell-based
HL-60 [4] = assay: Induction of apoptosis in human HL60 cells assessed as apoptotic cells after 12 hrs by Hoechst staining-based fluorescence microscopy; format: functional, cell-based
HL-60 [5] = assay: Induction of apoptosis in human HL60 cells assessed as apoptotic cells at 1 uM after 12 hrs by Hoechst staining-based fluorescence microscopy; format: functional
HL-60 [6] = assay: Induction of apoptosis in human HL60 cells assessed as PARP cleavage at 0.1 to 1 uM after 8 hrs by SDS-PAGE; format: functional, cell-based
HL-60 [7] = assay: Induction of apoptosis in human HL60 cells assessed as PARP cleavage at 0.1 to 1 uM after 12 hrs by SDS-PAGE; format: functional, cell-based
HL-60 [8] = assay: Induction of apoptosis in human HL60 cells assessed as […] DNA fragmentation at 10 uM after 12 hrs by agarose gel electrophoresis; format: functional, cell-based
HL-60 [9] = assay: Induction of apoptosis in human HL60 cells assessed as PARP cleavage at 1 to 10 uM after 8 hrs by SDS-PAGE; format: functional, cell-based
HL-60 [10] = assay: Induction of apoptosis in human HL60 cells assessed as PARP cleavage at 1 to 10 uM after 12 hrs by SDS-PAGE; format: functional, cell-based
HL-60 [11] = assay: Induction of apoptosis in human HL60 cells assessed as apoptotic cells at 10 uM after 12 hrs by Hoechst staining-based fluorescence microscopy; format: functional

Row | IC50 (HL-60 [2]) [µM] | Structure (SMILES) | Activity (HL-60 [1]) | Activity (HL-60 [2]) | Activity (HL-60 [3]) | Activity (HL-60 [4]) | Activity (HL-60 [5]) [%] | Activity (HL-60 [6]) | Activity (HL-60 [7]) | Activity (HL-60 [8]) | Activity (HL-60 [9]) | Activity (HL-60 [10]) | Activity (HL-60 [11]) [%]
1 | 0.25 | C=C1CC[C@H](OC(C)=O)/C(C)=C\[C@@H]2OC(=O)C(=C)[C@H]2[C@H](OC(C)=O)C1=O | Active | Dose-dependent effect | Active | Dose-dependent effect | 25.9 | Active | Active | – | – | – | –
2 | 55.1 | C=C1C(=O)O[C@H]2C[C@@]3(C)[C@H](C(=C)CC[C@@H]3O)[C@@H](O)[C@H]12 [ELEGALACTONE A] | – | – | – | – | – | – | – | – | – | – | –
3 | 5.3 | C=C1C(=O)O[C@H]2C[C@]3(C)[C@@H](OC(C)=O)CCC(=C)[C@@H]3[C@@H](OC(C)=O)[C@H]12 | – | Dose-dependent effect | – | Dose-dependent effect | – | – | – | Active | Active | Active | 14.3
